Results from patent publication US20260076937A1, “COMPOSITION FOR PREVENTING OR TREATING AUTOIMMUNE DISEASES COMPRISING A BCAT1 INHIBITOR” (Seoul National University R&DB Foundation, priority 2024, published 2026).
Entries after “also recorded” stand apart in the source; their conditions may differ.

Tests used:
[1] = test system: TCR-stimulated human CD4+ naive T cells; assay: Cytokine ELISA of culture supernatants, CD4+ naive T cells; assay type: cell-based; details: TCR stimulation 3 days
[2] = test system: TCR-stimulated human CD4+ memory T cells; assay: Cytokine ELISA of culture supernatants, CD4+ memory T cells; assay type: cell-based
Method: The study protocol was reviewed and approved by the Institutional Review Board (IRB) of Seoul National University Hospital. Peripheral blood was drawn from healthy controls (HC) after obtaining written consent from study participants, and all experiments were performed according to approved guidelines. Peripheral blood mononuclear cells (PBMCs) were isolated from peripheral blood using density gradient centrifugation (Biocoll separation solution; BIOCHROM Inc., Cambridge, UK). Total CD4^+ T cells, naive T cells and memory CD4^+ T-cells were isolated in a negative selection manner from CD14^+ monocyte depleted PBMCs using the MojoSort™ Human Total CD4^+ T-Cells, CD4^+ naive T-cells and CD4^+ memory T-cell isolation kit (BioLegend, San Diego, Calif.). Purified T cells were cultured in RPMI 1640 medium (hereinafter, “complete RPMI 1640”) supplemented with 10% fetal bovine serum (FBS), 1% penicillin/streptomycin, and 1% L-glutamine. Cells were stimulated with anti-CD3/CD28-coated microbeads (1:10 ratio, Dynabeads T-Activator CD3/CD28, Thermo Fisher Scientific, Waltham, MA) in the presence of designated chemical inhibitors or reagents including 2-amino-2-norbornanecarboxylic acid (BCH), JPH203, acetate, MG132, VH298, cobalt chloride (CoCl2), cycloheximid (CHX) (all provided by Sigma-Aldrich, St. Louis, MO), BCAT1 inhibitor 2 (Bi2: provided by Cayman Chemical, Ann Arbor, MI), 3-hydroxy-3-methylbutyric acid (HMB; provided by Thermo Fisher Scientific, Waltham, MA), and L-β-homoleucine (LβhL; provided by Santa Cruz Biotechnology, Heidelberg, Germany). In some experiments, a customized medium depleted of five essential amino acids (leucine, valine, isoleucine, phenylalanine, methionine) was used (Welgene, Gyeongsan, South Korea). All amino acids used (L-leucine, L-valine, L-isoleucine, L-phenylalanine, L-methionine) were purchased from Sigma-Aldrich.
IL-17A and IFN-γ amounts in culture supernatants were quantified using commercially available human ELISA kits (IL-17A ELISA kit by eBioscience and human IFN-γ ELISA MAX Deluxe by BioLegend) according to the manufacturer's instructions. Light density was measured using an Infinite M200 instrument (Tecan, Männedorf, Switzerland).

human CD4+ naive T cells = assay: Th17 polarization of human CD4+ naive T cells (RT-qPCR, ELISA); assay type: cell-based; details: Th17-polarized conditions, 7 days, Bi2 10 μM
Method: BCAT1 regulates HIF-1α through mTORC1 activation in human CD4^+ T cells. FIG. 11A relates to ubiquitin-proteasome degradation of HIF1a and inhibitors for each step. In FIG. 11B, CD4+ memory T cells were pretreated with Bi2 (10 μM), CoCl2 (100 μM), VH298 (100 μM) or MG132 (5 μM) for 1 hour and stimulated with anti-CD3/CD28 coated microbeads for 8 hours. Cell lysates were immunoblotted against HIF-1α (n=3 independent experiments). In FIG. 11C, CD4+ memory T cells were stimulated for 24 hours and then treated with CHX (0.2 μg/ml) for the specified time before being obtained. Cell lysates were immunoblotted against HIF-1α (n=3 independent experiments). In FIG. 11D, CD4^+ memory T cells were stimulated for a specified time with or without Bi2 (10 μM). […] Cell viability was analyzed by 7-AAD staining using a flow cytometer (n=3). […] The mRNA levels of genes involved in leucine metabolism were quantified using RT-qPCR (n=3). […] The mRNA expression of the signature genes of Th17 (i-j) or Th1 (k-l) and cytokines was measured by RT-qPCR and ELISA, respectively (n=5-7). […]
Total RNA was prepared using TRIzol reagent (Life Technologies, Grand Island, NY), followed by cDNA synthesis (Promega, Madison, WI), followed by real-time quantitative RT-PCR with a CFX system (Bio-Rad, Hercules, CA) using SensiFAST SYBR® Lo-ROX (Bioline, London. UK). […]

HIF-1α = assay: RT-qPCR of HIF-1α and HIF-1α target genes in CD4+ memory T cells; assay type: cell-based, human
Method: Total RNA was prepared using TRIzol reagent (Life Technologies, Grand Island, NY), followed by cDNA synthesis (Promega, Madison, WI), followed by real-time quantitative RT-PCR with a CFX system (Bio-Rad, Hercules, CA) using SensiFAST SYBR® Lo-ROX (Bioline, London. UK). Gene expression levels were normalized for […] expression using the comparative CT method (ΔΔCT).

O=C(NNS(=O)(=O)c1ccccc1C(F)(F)F)c1cc2cc(Cl)ccc2o1 [Bi2, BCATc inhibitor 2]
IL-2 production by CD4+ naive T cells [1]: not affected
IL-17A production in CD4+ memory T cells treated with statins [2]: further reduced
IFN-γ production by CD4+ memory T cells ([2]; TCR stimulation 3 days, Bi2 10 μM, JPH203 10 μM, HMB 0.4 mM, VH298 100 nM, LβhL 400 mg/L): did not affect
IL-17A production by CD4+ memory T cells ([2]; TCR stimulation 3 days, Bi2 10 μM, JPH203 10 μM, statin 10 μM, LβhL 400 mg/L): preferentially inhibited; also recorded: significantly reduced
IL-17A secretion (human CD4+ naive T cells): decreased
mRNA levels of RORC and IL17A (human CD4+ naive T cells): significantly reduced
HIF-1α mRNA expression (HIF-1α; 4 hours after TCR stimulation): reduced
expression of SCL2A1, LDHA and PGK1 mRNA (HIF-1α target genes) (HIF-1α; 72 hours of TCR stimulation): reduced
